The text below walks through data of BindingDB's records for PubMed 37639823 (Shenyang Pharmaceutical University).

The nature of the experiment: Inhibition of NLRP3 inflammasome in mouse BMDMs assessed as reduction in pyroptosis activity preincubated with LPS for 4 hrs followed by compound addition for 30 mins prior to nigericin addition and measured after 1 hr by ELISA.

The structures appear in SMILES notation. pIC50: −log10 of the molar value.

For `CC1=C(O)C(=O)C=C2C1=CC=C1[C@@]2(C)[C@@H](Br)C[C@@]2(C)[C@@H]3C[C@@H](C)C(=O)C[C@]3(C)CC[C@]12C`, the pIC50 is 6.89.

Turning to `COc1c(O)cc2c(c1C)C(=O)C=C1[C@@]2(C)CC[C@@]2(C)[C@@H]3C[C@@H](C)C(=O)[C@@H](O)[C@]3(C)CC[C@]12C`, the pIC50 was 5.66.
